Drawing on patent US8334382B2, “Substituted biaryl piperazinyl-pyridine analogues” (Neurogen Corporation, priority 2004, dated 2012), this text covers IC50 for 22 molecules.

The target in this assay is T1, human capsaicin receptor (Homo sapiens, UniProt Q8NER1).
T1 construct: expressed in transfected cells; host or cells: HEK293, stably transfected with pBK-CMV construct
Put plainly: Calcium mobilization assay, determination of antagonist activity. The settings on record: capsaicin at EC50; cells expressing human capsaicin receptor; Example 6. It counts as cell-based. The procedure: A cDNA encoding full length human capsaicin receptor (SEQ ID NO:1, 2 or 3 of U.S. Pat. No. 6,482,611) is subcloned in the plasmid pBK-CMV (Stratagene, La Jolla, Calif.) for recombinant expression in mammalian cells.
Human embryonic kidney (HEK293) cells are transfected with the pBK-CMV expression construct encoding the full length human capsaicin receptor using standard methods. The transfected cells are selected for two weeks in media containing G418 (400 μg/ml) to obtain a pool of stably transfected cells. Independent clones are isolated from this pool by limiting dilution to obtain clonal stable cell lines for use in subsequent experiments.
Cells transfected with expression plasmids (as described in Example 4) and thereby expressing human capsaicin receptor are seeded and grown to 70-90% confluency in FALCON black-walled, clear-bottomed 96-well plates (#3904, BECTON-DICKINSON, Franklin Lakes, N.J.). The culture medium is emptied from the 96 well plates and FLUO-3 AM calcium sensitive dye (Molecular Probes, Eugene, Oreg.) is added to each well (dye solution: 1 mg FLUO-3 AM, 440 μL DMSO and 440 μl 20% pluronic acid in DMSO, diluted 1:250 in Krebs-Ringer HEPES (KRH) buffer (25 mM HEPES, 5 mM KCl, 0.96 mM NaH2PO4, 1 mM MgSO4, 2 mM CaCl2, 5 mM glucose, 1 mM probenecid, pH 7.4), 50 μl diluted solution per well). Plates are covered with aluminum foil and incubated at 37° C. for 1-2 h in an environment containing 5% CO2. After the incubation, the dye is emptied from the plates, and the cells are washed once with KRH buffer, and resuspended in KRH buffer.
To measure the ability of a test compound to agonize or antagonize a calcium mobilization response in cells expressing capsaicin receptors to capsaicin or other vanilloid agonist, the EC50 of the agonist capsaicin is first determined. An additional 20 μl of KRH buffer and 1 μl DMSO is added to each well of cells, prepared as described above. 100 μl capsaicin in KRH buffer is automatically transferred by the FLIPR instrument to each well. Capsaicin-induced calcium mobilization is monitored using either FLUOROSKAN ASCENT (Labsystems; Franklin, Mass.) or FLIPR (fluorometric imaging plate reader system; Molecular Devices, Sunnyvale, Calif.) instruments. Data obtained between 30 and 60 seconds after agonist application are used to generate an 8-point concentration response curve, with final capsaicin concentrations of 1 nM to 3 μM. KALEIDAGRAPH software (Synergy Software, Reading, Pa.) is used to fit the data to the equation: y=a*(1/(1+(b/x)^c)) to determine the 50% excitatory concentration (EC50) for the response. In this equation, y is the maximum fluorescence signal, x is the concentration of the agonist or antagonist (in this case, capsaicin), a is the Emax, b corresponds to the EC50 value and c is the Hill coefficient. Determination of Agonist Activity
Test compounds are dissolved in DMSO, diluted in 20 μl KRH buffer so that the final concentration of test compounds in the assay well is between 1 μM and 5 μM, and added to cells prepared as described above. The 96 well plates containing prepared cells and test compounds are incubated in the dark, at room temperature for 0.5 to 6 h. It is important that the incubation not continue beyond 6 h. Just prior to determining the fluorescence response, 100 μl capsaicin in KRH buffer at twice the EC50 concentration determined as described above is automatically added by the FLIPR instrument to each well of the 96 well plate for a final sample volume of 200 μl and a final capsaicin concentration equal to the EC50. The final concentration of test compounds in the assay wells is between 1 μM and 5 μM. […] The concentration of antagonist required to provide a 50% decrease, relative to the response observed in the presence of capsaicin and without antagonist, is the IC50 for the antagonist, and is preferably below 1 micromolar, 100 nanomolar, 10 nanomolar or 1 nanomolar.

T1 sequence (Q8NER1 whole entry): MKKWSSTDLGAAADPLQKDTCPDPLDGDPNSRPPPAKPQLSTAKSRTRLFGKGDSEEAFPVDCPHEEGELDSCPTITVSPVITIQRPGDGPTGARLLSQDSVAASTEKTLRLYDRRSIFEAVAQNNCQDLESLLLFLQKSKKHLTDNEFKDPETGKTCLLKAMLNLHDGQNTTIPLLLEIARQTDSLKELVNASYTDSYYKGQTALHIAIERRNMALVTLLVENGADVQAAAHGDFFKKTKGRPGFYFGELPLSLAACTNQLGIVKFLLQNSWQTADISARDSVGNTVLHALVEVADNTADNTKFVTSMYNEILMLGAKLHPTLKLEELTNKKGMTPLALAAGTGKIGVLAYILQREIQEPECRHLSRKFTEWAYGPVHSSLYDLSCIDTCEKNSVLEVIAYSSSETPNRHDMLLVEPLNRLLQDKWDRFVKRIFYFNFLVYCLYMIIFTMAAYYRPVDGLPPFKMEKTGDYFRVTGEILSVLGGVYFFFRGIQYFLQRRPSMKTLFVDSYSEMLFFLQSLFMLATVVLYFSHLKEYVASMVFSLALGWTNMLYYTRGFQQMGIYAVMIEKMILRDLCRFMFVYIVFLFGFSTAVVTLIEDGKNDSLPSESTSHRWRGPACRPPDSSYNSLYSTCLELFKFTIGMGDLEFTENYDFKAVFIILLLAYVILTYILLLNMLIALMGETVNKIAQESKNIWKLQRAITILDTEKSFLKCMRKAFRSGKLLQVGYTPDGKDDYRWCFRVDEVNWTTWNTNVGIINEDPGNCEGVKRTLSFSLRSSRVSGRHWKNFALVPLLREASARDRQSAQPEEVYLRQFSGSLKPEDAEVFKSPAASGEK

Regarding `CCOC(=O)c1cnc(N2CCN(c3cc(-c4ccc(F)cc4)nc(N4CCCC4)n3)[C@H](C)C2)c(Cl)c1` [Example 28, 5-Chloro-6-{4-[6-(4-fluoro-phenyl)-2-pyrrolidin-1-yl-pyrimidin-4-yl]-3-(R)-methyl-piperazin-1-yl}-nicotinic acid ethyl ester], the IC50 is not above 1000 nM.
The result for `CC1CCCN1c1nc(-c2ccc(F)cc2)cc(N2CCN(c3ncc(C(=O)O)cc3Cl)C[C@H]2C)n1` (stereo partly drawn) [Example 29, 5-Chloro-6-{4-[6-(4-fluoro-phenyl)-2-(2-methyl-pyrrolidin-1-yl)-pyrimidin-4-yl]-3-(R)-methyl-piperazin-1-yl}-nicotinic acid] reads not above 1000 nM; that for `C[C@@H]1CN(c2ncc(C(=O)O)cc2Cl)CCN1c1cc(-c2ccc(F)cc2)nc(N2CCCC2)n1` [Example 30, 5-Chloro-6-{4-[6-(4-fluoro-phenyl)-2-pyrrolidin-1-yl-pyrimidin-4-yl]-3-(R)-methyl-piperazin-1-yl}-nicotinic acid], not above 1000 nM; that for `CC1CCCN1c1nc(-c2ccc(F)cc2)cc(N2CCN(c3ncc(CO)cc3Cl)C[C@H]2C)n1` (stereo partly drawn) [Example 31, (5-Chloro-6-{4-[6-(4-fluoro-phenyl)-2-(2-methyl-pyrrolidin-1-yl)-pyrimidin-4-yl]-3-(R)-methyl-piperazin-1-yl}-pyridin-3-yl)-methanol], not above 1000 nM.
On to `C[C@@H]1CN(c2ncc(CO)cc2Cl)CCN1c1cc(-c2ccc(F)cc2)nc(N2CCCC2)n1` [Example 32, (5-Chloro-6-{4-[6-(4-fluoro-phenyl)-2-pyrrolidin-1-yl-pyrimidin-4-yl]-3-(R)-methyl-piperazin-1-yl}-pyridin-3-yl)-methanol], for which the IC50 was not above 1000 nM.
In the case of `CC1CCCN1c1nc(-c2ccc(F)cc2)cc(N2CCN(c3ncc(C(N)=O)cc3Cl)C[C@H]2C)n1` (stereo partly drawn) [Example 33, 5-Chloro-6-{4-[6-(4-fluoro-phenyl)-2-(2-methyl-pyrrolidin-1-yl)-pyrimidin-4-yl]-3-(R)-methyl-piperazin-1-yl}-nicotinamide] it was not above 1000 nM; in that of `Cc1cc(C(=O)O)cnc1N1CCN(c2cc(-c3ccc(F)cc3)nc(N3CCCC3C)n2)[C@H](C)C1` (stereo partly drawn) [Example 34, 6-{4-[6-(4-Fluoro-phenyl)-2-(2-methyl-pyrrolidin-1-yl)-pyrimidin-4-yl]-3-(R)-methyl-piperazin-1-yl}-5-methyl-nicotinic acid], not above 1000 nM; in that of `Cc1cc(C(=O)O)cnc1N1CCN(c2cc(-c3ccc(F)cc3)nc(N3CCCC3C)n2)CC1` (stereo not shown) [Example 36, 6-{4-[6-(4-Fluoro-phenyl)-2-(2-methyl-pyrrolidin-1-yl)-pyrimidin-4-yl]-piperazin-1-yl}-5-methyl-nicotinic acid], not above 1000 nM.
For `Cc1cc(CO)cnc1N1CCN(c2cc(-c3ccc(F)cc3)nc(N3CCCC3C)n2)[C@H](C)C1` (stereo partly drawn) [Example 37, (6-{4-[6-(4-Fluoro-phenyl)-2-(2-methyl-pyrrolidin-1-yl)-pyrimidin-4-yl]-3-(R)-methyl-piperazin-1-yl}-5-methyl-pyridin-3-yl)-methanol], the IC50 was not above 1000 nM.
The result for `Cc1cc(CO)cnc1N1CCN(c2cc(-c3ccc(F)cc3)nc(N3CCCC3C)n2)CC1` (stereo not shown) [Example 38, (6-{4-[6-(4-Fluoro-phenyl)-2-(2-methyl-pyrrolidin-1-yl)-pyrimidin-4-yl]-piperazin-1-yl}-5-methyl-pyridin-3-yl)-methanol] reads not above 1000 nM; that for `CC1CCCN1c1nc(-c2ccc(F)cc2)cc(N2CCN(c3ncc(CC(=O)O)cc3Cl)CC2)n1` (stereo not shown) [Example 39, (5-Chloro-6-{4-[6-(4-fluoro-phenyl)-2-(2-methyl-pyrrolidin-1-yl)-pyrimidin-4-yl]-piperazin-1-yl}-pyridin-3-yl)-acetic acid], not above 1000 nM; that for `CC1CCCN1c1nc(-c2ccc(F)cc2)cc(N2CCN(c3ncc(C(N)=O)cc3Cl)CC2)n1` (stereo not shown) [Example 40, 5-Chloro-6-{4-[6-(4-fluoro-phenyl)-2-(2-methyl-pyrrolidin-1-yl)-pyrimidin-4-yl]-piperazin-1-yl}-nicotinamide], not above 1000 nM.
In the case of `CCOC(=O)c1cnc(N2CCN(c3cc(-c4ccccc4)nc(N4CCCC4C)n3)[C@H](C)C2)c(Cl)c1` (stereo partly drawn) [Example 41, 5-Chloro-6-{3-(R)-methyl-4-[2-(2-methyl-pyrrolidin-1-yl)-6-phenyl-pyrimidin-4-yl]-piperazin-1-yl}-nicotinic acid ethyl ester], the IC50 is not above 1000 nM.
The result for `CCOC(=O)c1cnc(N2CCN(c3cc(-c4cncc(Cl)c4)nc(N4CCCC4C)n3)[C@H](C)C2)c(Cl)c1` (stereo partly drawn) [Example 42, 5-Chloro-6-{4-[6-(5-chloro-pyridin-3-yl)-2-(2-methyl-pyrrolidin-1-yl)-pyrimidin-4-yl]-3-(R)-methyl-piperazin-1-yl}-nicotinic acid ethyl ester] reads not above 1000 nM.
For the molecule `CCOC(=O)c1cnc(N2CCN(c3cc(-c4ccnc(C(C)C)c4)nc(N4CCCC4C)n3)[C@H](C)C2)c(Cl)c1` (stereo partly drawn) [Example 43, 5-Chloro-6-{4-[6-(2-isopropyl-pyridin-4-yl)-2-(2-methyl-pyrrolidin-1-yl)-pyrimidin-4-yl]-3-(R)-methyl-piperazin-1-yl}-nicotinic acid ethyl ester], the IC50 was not above 1000 nM.
In the case of `Cc1cc(C(N)=O)cnc1N1CCN(c2cc(-c3ccc(F)cc3)nc(N3CCCC3C)n2)[C@H](C)C1` (stereo partly drawn) [Example 44, 6-{4-[6-(4-Fluoro-phenyl)-2-(2-methyl-pyrrolidin-1-yl)-pyrimidin-4-yl]-3-(R)-methyl-piperazin-1-yl}-5-methyl-nicotinamide] it was not above 1000 nM; in that of `Cc1cc(C(N)=O)cnc1N1CCN(c2cc(-c3ccc(F)cc3)nc(N3CCCC3C)n2)CC1` (stereo not shown) [Example 45, 6-{4-[6-(4-Fluoro-phenyl)-2-(2-methyl-pyrrolidin-1-yl)-pyrimidin-4-yl]-piperazin-1-yl}-5-methyl-nicotinamide], not above 1000 nM; in that of `CCOC(=O)c1cnc(N2CCN(c3cc(-c4cccc(C)c4)nc(N4CCCC4C)n3)[C@H](C)C2)c(Cl)c1` (stereo partly drawn) [Example 46, 5-Chloro-6-{3-(R)-methyl-4-[2-(2-methyl-pyrrolidin-1-yl)-6-m-tolyl-pyrimidin-4-yl]-piperazin-1-yl}-nicotinic acid ethyl ester], not above 1000 nM.
In the case of `CC1CCCN1c1nc(-c2ccccc2)cc(N2CCN(c3ncc(CO)cc3Cl)C[C@H]2C)n1` (stereo partly drawn) [Example 47, (5-Chloro-6-{3-(R)-methyl-4-[2-(2-methyl-pyrrolidin-1-yl)-6-phenyl-pyrimidin-4-yl]-piperazin-1-yl}-pyridin-3-yl)-methanol] it was not above 1000 nM.
In the case of `Cc1cccc(-c2cc(N3CCN(c4ncc(CO)cc4Cl)C[C@H]3C)nc(N3CCCC3C)n2)c1` (stereo partly drawn) [Example 48, (5-Chloro-6-{3-(R)-methyl-4-[2-(2-methyl-pyrrolidin-1-yl)-6-m-tolyl-pyrimidin-4-yl]-piperazin-1-yl}-pyridin-3-yl)-methanol] it was not above 1000 nM.
Regarding `CC1CCCN1c1nc(-c2cncc(Cl)c2)cc(N2CCN(c3ncc(CO)cc3Cl)C[C@H]2C)n1` (stereo partly drawn) [Example 49, (5-Chloro-6-{4-[6-(5-chloro-pyridin-3-yl)-2-(2-methyl-pyrrolidin-1-yl)-pyrimidin-4-yl]-3-(R)-methyl-piperazin-1-yl}-pyridin-3-yl)-methanol], the IC50 was not above 1000 nM.
In the case of `CC(C)c1cc(-c2cc(N3CCN(c4ncc(CO)cc4Cl)C[C@H]3C)nc(N3CCCC3C)n2)ccn1` (stereo partly drawn) [Example 50, (5-Chloro-6-{4-[6-(2-isopropyl-pyridin-4-yl)-2-(2-methyl-pyrrolidin-1-yl)-pyrimidin-4-yl]-3-(R)-methyl-piperazin-1-yl}-pyridin-3-yl)-methanol], the IC50 is not above 1000 nM.
